The record followed here is ChEMBL document CHEMBL1201862, “PubChem BioAssay data set” (2004).

The source made the active and inactive calls.

Usually CC50 stands for the concentration at which the toxic effect on the cells reaches its halfway point. In general, AC50 refers to the midpoint of the concentration-response curve, whichever way the signal moves. By IC50 is commonly meant the concentration that inhibits the measured activity by half. As usually defined, the EC50 is the concentration at which the effect is half-maximal.

The subject of test [1] is Vero. The test can be described thus: viability of Vero cells under compound – cytotoxicity control for flavivirus capping enzyme inhibitors (AID 588742). It counts as functional. The conditions noted are these: Chlorocebus sabaeus.
Test [2] deals with T1, Long-chain-fatty-acid--AMP ligase FadD28 (Mycobacterium tuberculosis, UniProt P9WQ59).
T1 sequence (P9WQ59 whole entry): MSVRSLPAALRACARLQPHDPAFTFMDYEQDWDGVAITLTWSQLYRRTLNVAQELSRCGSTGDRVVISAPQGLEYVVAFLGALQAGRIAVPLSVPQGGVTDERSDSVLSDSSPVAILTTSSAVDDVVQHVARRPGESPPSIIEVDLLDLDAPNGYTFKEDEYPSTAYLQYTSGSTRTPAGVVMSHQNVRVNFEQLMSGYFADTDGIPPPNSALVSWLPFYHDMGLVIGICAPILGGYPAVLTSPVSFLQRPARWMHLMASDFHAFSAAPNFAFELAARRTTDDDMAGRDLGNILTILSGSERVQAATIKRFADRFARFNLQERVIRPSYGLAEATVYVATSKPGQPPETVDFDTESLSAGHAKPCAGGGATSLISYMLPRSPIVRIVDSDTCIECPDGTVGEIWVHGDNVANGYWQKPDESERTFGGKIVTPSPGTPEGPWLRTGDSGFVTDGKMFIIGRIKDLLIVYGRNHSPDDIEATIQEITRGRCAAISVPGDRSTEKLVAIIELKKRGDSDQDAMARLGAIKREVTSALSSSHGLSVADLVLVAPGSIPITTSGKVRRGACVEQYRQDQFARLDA
The test can be described thus: Fluorescence polarization aasay to screen for inhibitors that compete for the binding of FadD28 to a bisubstrate Measured in Biochemical System Using Plate Reader - 2147-01_Inhibitor_Dose_CherryPick_Activity. It counts as functional, Mycobacterium tuberculosis H37Rv.

Test [3] deals with T2, DNA repair protein RAD52 homolog (Homo sapiens, UniProt P43351).
T2 sequence (P43351 whole entry): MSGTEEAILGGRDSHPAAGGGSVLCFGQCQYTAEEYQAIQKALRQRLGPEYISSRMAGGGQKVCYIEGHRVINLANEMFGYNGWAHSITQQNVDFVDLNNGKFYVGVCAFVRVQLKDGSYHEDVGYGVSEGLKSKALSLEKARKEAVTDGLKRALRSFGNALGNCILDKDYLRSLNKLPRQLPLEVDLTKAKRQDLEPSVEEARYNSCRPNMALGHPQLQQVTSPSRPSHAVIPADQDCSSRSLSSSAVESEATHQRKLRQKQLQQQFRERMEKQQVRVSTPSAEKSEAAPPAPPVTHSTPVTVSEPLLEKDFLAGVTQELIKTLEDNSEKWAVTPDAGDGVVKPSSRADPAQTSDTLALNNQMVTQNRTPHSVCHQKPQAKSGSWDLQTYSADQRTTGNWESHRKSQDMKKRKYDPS
It counts as functional, biochemical.

Test [4] deals with T3, Mannose-6-phosphate isomerase (Homo sapiens, UniProt P34949).
T3 sequence (P34949 whole entry): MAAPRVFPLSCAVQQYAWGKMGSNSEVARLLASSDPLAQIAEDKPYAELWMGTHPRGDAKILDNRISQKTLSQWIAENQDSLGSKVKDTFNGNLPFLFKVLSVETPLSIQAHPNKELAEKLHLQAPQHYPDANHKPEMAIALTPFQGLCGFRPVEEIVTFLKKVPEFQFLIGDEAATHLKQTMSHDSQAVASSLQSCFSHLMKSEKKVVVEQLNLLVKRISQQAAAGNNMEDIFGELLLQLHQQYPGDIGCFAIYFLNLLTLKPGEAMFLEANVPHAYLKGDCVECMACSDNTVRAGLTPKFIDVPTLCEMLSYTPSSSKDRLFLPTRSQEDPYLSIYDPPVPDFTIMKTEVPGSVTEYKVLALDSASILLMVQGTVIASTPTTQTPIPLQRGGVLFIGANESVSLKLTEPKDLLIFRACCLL
The test can be described thus: MPI inhibition at elevated mannose 6-phosphate – biochemical, fluorescence intensity, high mannose 6-phosphate, primary screen (AID 1220).

Test [5] concerns the target Eukaryotic translation initiation factor 4E (Mus musculus, UniProt P63073). The test can be described thus: blockers of eIF4G binding by eIF4E – biochemical, TR-FRET, dose response (AID 855).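 Note: potency for disrupting eIF4E binding to eIF4GI seen as loss of FRET.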 It counts as functional. (TR-FRET usually uses a lanthanide donor and a delayed reading to cut background.)
Test [6] concerns the target Voltage-dependent T-type calcium channel subunit alpha-1H (Homo sapiens, UniProt O95180). It counts as functional.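 Note: channel activity triggered by adding a high calcium stimulation buffer.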
Test [7] addresses T4, Short transient receptor potential channel 4 (Mus musculus, UniProt Q9QUQ5).
T4 sequence (Q9QUQ5 whole entry): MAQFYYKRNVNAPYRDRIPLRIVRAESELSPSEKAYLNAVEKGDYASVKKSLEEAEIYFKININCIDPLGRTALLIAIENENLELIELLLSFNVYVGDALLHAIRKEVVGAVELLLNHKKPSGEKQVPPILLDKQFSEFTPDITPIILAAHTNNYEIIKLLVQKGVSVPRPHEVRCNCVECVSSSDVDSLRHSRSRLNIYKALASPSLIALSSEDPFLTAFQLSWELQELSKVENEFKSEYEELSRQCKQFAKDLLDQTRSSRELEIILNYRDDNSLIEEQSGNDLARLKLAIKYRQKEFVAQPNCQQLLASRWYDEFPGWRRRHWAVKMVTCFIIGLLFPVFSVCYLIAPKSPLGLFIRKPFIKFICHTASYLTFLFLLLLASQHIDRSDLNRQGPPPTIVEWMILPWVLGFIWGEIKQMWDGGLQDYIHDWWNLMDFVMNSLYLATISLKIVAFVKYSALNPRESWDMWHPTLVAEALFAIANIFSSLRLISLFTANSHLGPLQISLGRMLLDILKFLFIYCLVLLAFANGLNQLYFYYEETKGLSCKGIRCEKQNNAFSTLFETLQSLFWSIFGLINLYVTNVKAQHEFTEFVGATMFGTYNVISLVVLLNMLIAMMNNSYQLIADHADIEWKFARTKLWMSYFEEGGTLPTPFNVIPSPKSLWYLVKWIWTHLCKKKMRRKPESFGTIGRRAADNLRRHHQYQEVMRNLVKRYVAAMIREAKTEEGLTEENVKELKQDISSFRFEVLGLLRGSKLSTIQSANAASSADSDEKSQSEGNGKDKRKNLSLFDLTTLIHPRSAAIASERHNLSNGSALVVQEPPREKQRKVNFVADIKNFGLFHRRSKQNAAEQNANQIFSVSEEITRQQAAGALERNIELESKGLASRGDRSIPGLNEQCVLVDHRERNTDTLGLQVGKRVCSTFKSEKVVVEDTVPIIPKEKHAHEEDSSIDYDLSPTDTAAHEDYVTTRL
Description: calcium entry via TRPC4 opening agents – cell-based, HEK293 TRPC4/mu-opioid, Fluo-4 calcium, dose response (AID 434937). It counts as functional.

The target in test [8] is Estrogen receptor beta (Homo sapiens, UniProt Q92731).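 Note: recombinant ER-beta bound to coactivator SRC1 peptide in presence of estradiol agonist; inhibitors block coactivator peptide binding and lower the FRET signal.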
Sequence of Estrogen receptor beta (Q92731 whole entry): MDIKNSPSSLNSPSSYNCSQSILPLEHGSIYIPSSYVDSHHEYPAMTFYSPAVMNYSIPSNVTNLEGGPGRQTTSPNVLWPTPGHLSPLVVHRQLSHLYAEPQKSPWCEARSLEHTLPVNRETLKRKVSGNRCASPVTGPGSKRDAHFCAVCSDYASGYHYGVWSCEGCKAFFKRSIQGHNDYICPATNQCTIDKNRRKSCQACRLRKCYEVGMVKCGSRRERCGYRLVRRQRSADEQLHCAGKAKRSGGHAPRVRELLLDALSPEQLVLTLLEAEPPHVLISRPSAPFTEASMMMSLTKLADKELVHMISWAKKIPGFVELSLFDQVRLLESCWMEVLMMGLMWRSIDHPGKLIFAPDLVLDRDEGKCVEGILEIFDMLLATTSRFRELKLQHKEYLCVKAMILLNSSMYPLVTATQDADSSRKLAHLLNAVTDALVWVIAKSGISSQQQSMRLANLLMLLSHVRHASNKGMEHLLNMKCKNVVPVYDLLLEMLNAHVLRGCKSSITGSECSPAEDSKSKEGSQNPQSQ
Test [9] addresses SUMO-activating enzyme (Homo sapiens, UniProt Q9UBT2). The test can be described thus: blockers of UBC9-mediated SUMO conjugation – biochemical, AlphaScreen, SUMOylation inhibitor project, confirmation (AID 2018). It counts as functional. (In general: Bead proximity is the source of the signal in Alpha formats.)
Test [10] is described as follows: viability of uninfected HEp-2 cells – cell-based, HTS, cytotoxicity control for RSV inhibitor project, dose response (AID 2410). It counts as functional. The conditions noted are these: human respiratory syncytial virus.
For test [11], the system named is Vero. Description: cells. It counts as functional, cell-based. The conditions noted are these: Chlorocebus sabaeus.
In test [12] the test system is Vero. Description: cells. The conditions noted are these: Chlorocebus sabaeus. It counts as functional.
Test [13] addresses T5, Histone-lysine N-methyltransferase NSD2 (Homo sapiens, UniProt O96028).
T5 sequence (O96028 whole entry): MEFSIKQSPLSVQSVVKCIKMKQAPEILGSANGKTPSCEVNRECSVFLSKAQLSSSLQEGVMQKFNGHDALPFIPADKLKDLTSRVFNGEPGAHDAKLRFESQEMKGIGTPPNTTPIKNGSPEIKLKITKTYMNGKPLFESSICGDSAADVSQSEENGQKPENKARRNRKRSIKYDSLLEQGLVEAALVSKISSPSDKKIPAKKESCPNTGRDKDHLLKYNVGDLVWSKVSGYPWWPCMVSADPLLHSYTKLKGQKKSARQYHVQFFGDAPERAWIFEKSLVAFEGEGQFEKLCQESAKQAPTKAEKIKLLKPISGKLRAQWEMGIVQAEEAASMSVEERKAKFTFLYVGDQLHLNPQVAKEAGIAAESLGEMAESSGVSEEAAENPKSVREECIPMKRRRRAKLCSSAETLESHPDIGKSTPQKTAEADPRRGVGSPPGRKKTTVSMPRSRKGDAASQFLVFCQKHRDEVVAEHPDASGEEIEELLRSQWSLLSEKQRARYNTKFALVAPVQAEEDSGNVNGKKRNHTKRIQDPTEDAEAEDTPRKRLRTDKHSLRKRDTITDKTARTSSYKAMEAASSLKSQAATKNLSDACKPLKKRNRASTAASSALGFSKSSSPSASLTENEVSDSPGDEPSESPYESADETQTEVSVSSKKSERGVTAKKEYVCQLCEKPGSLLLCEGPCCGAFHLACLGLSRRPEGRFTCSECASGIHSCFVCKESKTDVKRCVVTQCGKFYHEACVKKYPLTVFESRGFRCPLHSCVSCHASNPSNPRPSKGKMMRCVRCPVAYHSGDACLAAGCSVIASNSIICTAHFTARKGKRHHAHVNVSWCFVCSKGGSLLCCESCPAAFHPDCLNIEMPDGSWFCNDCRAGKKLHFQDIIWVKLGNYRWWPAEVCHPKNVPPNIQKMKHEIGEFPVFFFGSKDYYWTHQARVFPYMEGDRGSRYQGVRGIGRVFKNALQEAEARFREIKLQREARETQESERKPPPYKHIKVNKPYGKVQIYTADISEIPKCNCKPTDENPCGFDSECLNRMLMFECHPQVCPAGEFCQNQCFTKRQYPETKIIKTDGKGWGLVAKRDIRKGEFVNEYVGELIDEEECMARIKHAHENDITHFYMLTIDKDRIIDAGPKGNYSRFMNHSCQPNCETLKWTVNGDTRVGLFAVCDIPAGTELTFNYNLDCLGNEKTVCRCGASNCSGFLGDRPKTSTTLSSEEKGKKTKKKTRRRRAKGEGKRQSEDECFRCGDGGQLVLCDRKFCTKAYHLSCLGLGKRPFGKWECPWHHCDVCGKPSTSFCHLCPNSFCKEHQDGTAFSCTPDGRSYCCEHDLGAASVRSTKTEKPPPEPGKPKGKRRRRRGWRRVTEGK
It counts as biochemical.

Test [14] concerns the target FAD-linked sulfhydryl oxidase ALR (Homo sapiens, UniProt P55789). The test can be described thus: ALR-catalysed DTT oxidation blockers – biochemical, H2O2 detection, luminescence, cherry-pick, dose response (AID 493248).

Sequence of Eukaryotic translation initiation factor 4E (P63073 whole entry): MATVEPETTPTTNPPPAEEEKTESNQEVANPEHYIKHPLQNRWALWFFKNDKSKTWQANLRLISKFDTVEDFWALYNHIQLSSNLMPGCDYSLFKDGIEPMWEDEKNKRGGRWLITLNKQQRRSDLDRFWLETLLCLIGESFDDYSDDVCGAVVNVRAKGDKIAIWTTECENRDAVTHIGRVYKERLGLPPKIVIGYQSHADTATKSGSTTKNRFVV
Sequence of SUMO-activating enzyme (Q9UBE0 whole entry): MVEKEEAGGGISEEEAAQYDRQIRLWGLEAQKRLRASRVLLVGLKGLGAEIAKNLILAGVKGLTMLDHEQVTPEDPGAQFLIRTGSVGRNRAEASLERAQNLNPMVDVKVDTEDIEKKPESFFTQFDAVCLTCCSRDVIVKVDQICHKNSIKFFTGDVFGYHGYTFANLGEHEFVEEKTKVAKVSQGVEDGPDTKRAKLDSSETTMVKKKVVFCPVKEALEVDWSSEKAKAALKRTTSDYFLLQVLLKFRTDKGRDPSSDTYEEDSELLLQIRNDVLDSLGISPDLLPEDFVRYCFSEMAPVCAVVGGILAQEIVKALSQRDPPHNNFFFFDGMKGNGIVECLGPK
Sequence of SUMO-activating enzyme (Q9UBT2 whole entry): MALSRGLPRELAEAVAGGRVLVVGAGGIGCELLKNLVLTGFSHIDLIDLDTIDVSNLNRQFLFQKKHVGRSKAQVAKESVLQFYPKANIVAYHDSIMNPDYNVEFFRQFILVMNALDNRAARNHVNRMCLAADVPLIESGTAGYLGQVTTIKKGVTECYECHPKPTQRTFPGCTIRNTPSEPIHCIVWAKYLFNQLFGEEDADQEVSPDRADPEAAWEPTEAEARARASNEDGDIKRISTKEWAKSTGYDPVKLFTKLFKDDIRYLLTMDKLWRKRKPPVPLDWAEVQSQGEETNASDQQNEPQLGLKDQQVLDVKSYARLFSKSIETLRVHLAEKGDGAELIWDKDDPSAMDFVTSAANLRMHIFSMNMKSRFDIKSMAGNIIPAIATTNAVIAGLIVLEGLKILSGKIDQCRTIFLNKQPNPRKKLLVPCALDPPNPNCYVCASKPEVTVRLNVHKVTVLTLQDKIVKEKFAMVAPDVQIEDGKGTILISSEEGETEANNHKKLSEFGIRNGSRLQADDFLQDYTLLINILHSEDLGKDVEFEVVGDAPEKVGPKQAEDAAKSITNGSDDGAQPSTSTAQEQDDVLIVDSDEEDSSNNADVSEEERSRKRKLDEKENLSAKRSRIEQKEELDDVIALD
Sequence of Voltage-dependent T-type calcium channel subunit alpha-1H (O95180 whole entry): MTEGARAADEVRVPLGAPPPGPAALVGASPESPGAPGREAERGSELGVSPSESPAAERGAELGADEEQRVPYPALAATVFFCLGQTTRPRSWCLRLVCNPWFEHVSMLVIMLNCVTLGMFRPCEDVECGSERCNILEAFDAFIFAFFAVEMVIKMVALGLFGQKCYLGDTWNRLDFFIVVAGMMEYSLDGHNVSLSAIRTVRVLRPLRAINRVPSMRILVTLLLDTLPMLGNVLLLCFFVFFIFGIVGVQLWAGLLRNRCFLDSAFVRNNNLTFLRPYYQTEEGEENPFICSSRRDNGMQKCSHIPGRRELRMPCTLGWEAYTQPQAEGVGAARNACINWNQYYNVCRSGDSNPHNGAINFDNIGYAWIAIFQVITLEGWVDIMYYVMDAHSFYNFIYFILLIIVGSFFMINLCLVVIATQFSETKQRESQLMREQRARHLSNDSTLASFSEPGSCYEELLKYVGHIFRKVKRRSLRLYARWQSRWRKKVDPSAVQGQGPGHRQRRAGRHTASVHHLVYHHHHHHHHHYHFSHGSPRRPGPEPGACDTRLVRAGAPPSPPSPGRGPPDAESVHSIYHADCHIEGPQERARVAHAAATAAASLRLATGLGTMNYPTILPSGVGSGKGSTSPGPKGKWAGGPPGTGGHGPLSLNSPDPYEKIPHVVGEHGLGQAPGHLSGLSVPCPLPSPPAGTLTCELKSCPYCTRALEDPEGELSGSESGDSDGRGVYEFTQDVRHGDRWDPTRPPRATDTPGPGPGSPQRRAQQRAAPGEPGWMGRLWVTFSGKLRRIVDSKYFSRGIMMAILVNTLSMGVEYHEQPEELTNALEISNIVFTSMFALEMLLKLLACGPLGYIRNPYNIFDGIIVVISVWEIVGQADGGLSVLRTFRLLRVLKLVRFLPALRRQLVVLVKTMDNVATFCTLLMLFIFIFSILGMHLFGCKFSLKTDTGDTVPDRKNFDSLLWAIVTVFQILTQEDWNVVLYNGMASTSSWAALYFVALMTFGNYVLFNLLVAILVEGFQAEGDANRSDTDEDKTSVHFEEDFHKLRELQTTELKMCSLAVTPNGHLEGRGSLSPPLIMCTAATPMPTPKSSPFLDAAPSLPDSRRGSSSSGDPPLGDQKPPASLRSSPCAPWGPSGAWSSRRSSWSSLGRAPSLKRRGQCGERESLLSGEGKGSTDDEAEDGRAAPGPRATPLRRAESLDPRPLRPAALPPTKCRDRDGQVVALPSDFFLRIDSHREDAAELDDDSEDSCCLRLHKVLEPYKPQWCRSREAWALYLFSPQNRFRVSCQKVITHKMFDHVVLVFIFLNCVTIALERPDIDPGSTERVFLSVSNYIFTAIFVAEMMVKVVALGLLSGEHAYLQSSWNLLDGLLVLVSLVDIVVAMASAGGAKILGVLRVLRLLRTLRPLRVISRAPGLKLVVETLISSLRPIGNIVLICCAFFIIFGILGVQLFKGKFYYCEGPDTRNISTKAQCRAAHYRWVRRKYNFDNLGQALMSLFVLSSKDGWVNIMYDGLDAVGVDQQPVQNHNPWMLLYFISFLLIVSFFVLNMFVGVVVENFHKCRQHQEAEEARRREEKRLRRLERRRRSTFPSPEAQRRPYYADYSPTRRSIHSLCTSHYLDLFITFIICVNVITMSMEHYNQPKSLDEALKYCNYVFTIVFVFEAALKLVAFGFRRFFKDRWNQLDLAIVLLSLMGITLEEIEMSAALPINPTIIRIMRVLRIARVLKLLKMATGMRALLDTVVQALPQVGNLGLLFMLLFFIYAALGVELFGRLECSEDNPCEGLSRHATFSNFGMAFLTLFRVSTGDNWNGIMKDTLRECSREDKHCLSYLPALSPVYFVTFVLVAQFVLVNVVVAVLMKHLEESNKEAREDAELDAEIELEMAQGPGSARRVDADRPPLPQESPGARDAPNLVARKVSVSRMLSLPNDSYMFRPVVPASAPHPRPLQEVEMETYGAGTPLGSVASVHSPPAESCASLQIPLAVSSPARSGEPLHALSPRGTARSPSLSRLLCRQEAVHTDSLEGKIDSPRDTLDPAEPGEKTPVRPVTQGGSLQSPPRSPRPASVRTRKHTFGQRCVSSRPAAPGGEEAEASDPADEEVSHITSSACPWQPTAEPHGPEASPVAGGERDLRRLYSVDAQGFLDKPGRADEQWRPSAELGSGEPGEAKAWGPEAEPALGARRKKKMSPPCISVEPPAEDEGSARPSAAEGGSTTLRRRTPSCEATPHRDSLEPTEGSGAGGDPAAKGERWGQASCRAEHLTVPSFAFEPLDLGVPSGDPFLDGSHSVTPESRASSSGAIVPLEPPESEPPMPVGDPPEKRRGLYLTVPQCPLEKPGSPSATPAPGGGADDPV
Sequence of FAD-linked sulfhydryl oxidase ALR (P55789 whole entry): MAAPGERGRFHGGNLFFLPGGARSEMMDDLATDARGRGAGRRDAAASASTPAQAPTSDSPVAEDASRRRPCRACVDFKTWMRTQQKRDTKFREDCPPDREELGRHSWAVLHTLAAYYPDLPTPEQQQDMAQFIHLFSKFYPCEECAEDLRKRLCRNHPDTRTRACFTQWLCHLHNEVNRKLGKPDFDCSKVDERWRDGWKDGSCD

For the molecule `O=C(Nc1ccc2c(c1)CCCN2C(=O)c1cccs1)c1ccccc1`, the CC50 in [1] is > 40 µM (active). Regarding `CCc1cccc(NC(=O)CN2C(=O)NC3(CCCCCCC3)C2=O)c1`, the AC50 in [2] is > 100 µM (inactive). Regarding `CCCCN=C(S)Nc1ccc2nc(N3CCN(CC)CC3)cc(C)c2c1`, the concentration at half-maximal activity (AC50) in test [3] is 25.9 µM (active). Consider `COC(=O)C1=C(C(=O)OC)SC(=C2C(=S)C(C)(C)N(C(=O)C3CC3)c3ccccc32)S1`, for which, in test [4], the IC50 was 6.47 µM (active).

For the molecule `Cc1cccc(S(=O)(=O)Nc2nc3ccccc3nc2Nc2cccc(C(=O)O)c2)c1`, the AC50 in [2] is 91.1 µM (active). As for `O=S(=O)(NCCc1ccc(F)cc1)c1cccc2cccnc12`, in [5], the IC50 is 50 µM (inactive). As for `O=C(CS(=O)(=O)Cc1ccccc1)Nc1ccc(S(=O)(=O)N2CCCCCC2)cc1`, the EC50 in test [6] is 4.62 µM (active). Also, the AC50 in [2] is 80.8 µM (active). Turning to `COc1ccc(C(c2sc3nc(C)nn3c2O)N2CCc3ccccc3C2)cc1` (stereo not drawn), the IC50 in test [4] was 9.88 µM (active).

Turning to `Cc1cc(-c2nn(-c3ccccc3F)cc2CNCCc2c[nH]cn2)c(C)s1`, the EC50 in test [7] is 0.0427 µM (active). On to `O=C(NCc1ccco1)C1(S(=O)(=O)c2ccc(Cl)cc2)CC1`, for which the IC50 in [8] is listed as > 50 µM (not active).

`CC1CCCN(c2nc3ccccc3nc2C(C#N)S(=O)(=O)c2ccccc2)C1` (stereo not drawn): the half-inhibitory concentration (IC50) in test [9] is 22.1 µM (active). On to `Cc1ccc2cc(C#N)c(NCCNC(S)=NCCCN(C)C)nc2c1C`, for which the CC50 in test [10] was 13.2 µM (active); in test [12] it was 15.1 µM (active). Moreover, the IC50 in test [11] is > 25 µM (active). In test [3], the AC50 is 16.9 µM (active). For `CCN(CC)CCN=C(S)Nc1ccc2nc(N3CCCC3)cc(C)c2c1`, the AC50 was 3.9 µM (active) in [3] and > 20 µM (inactive) in test [13].

Regarding `CCOC(=O)CCC(NC(=O)c1ccc(NCN2C(=O)CCC2=O)cc1)C(=O)OCC` (stereo not drawn), the IC50 in test [8] is > 50 µM (not active). Turning to `N=C1/C(=C/c2cccn2Cc2ccc(Cl)cc2)C(=O)N=C2SC=CN12`, in test [9], the IC50 is 47.6 µM (active). Take `O=C(CN1C(=O)NC2(CCCc3ccccc32)C1=O)c1ccc(Br)cc1` (stereo not drawn): the AC50 in test [2] was > 100 µM (inactive). Take `O=C(c1cccn2c(=O)c3cc(Cl)ccc3nc12)N1CCN(Cc2ccc3c(c2)OCO3)CC1`: the IC50 in [5] was > 64 µM (inactive). As to `Cc1ccc(C(=O)Nc2nc(-c3cccnc3)cs2)o1`, in test [8], the IC50 is 21.2 µM (active). Regarding `O=C(O)C1C2C=CC(C2)C1C(=O)NC1CCN(Cc2ccccc2)CC1` (stereo not drawn), in test [7], the EC50 is 5.31 µM (active). Turning to `O=C(O)c1ccc2c(c1)C(=O)N(c1ccc(Nc3ccccc3)cc1)C2=O`, the half-maximal activity concentration (AC50) in test [14] was 25.8 µM (active); in test [2] it was > 100 µM (inactive). `CCN1CCCC1CNC(=O)c1cc2c(OC)cccc2[nH]1` (stereo not drawn): the EC50 in test [7] was 6.68 µM (active). In the case of `O=C(OCC1CC(c2ccccn2)=NO1)c1ccc(Br)cc1` (stereo not drawn), in test [5], the IC50 is > 64 µM (inactive).
